Data on two substances can be found in patent US12285404B2, “Prevention of rosacea inflammation” (The Regents of the University of California, priority 2013, dated 2025).

The test system of test [1] is WT (C57BL/6) and MC-deficient (KitWsh-/-) mice. Briefly: Rosacea mouse model: intradermal Cath LL-37 in WT and MC-deficient (KitWsh-/-) mice. In kind it is in vivo. The protocol:
(a) Human biopsy samples from healthy and rosacea subjects were assessed for chymase and Mmp-9 mRNA expressions (n=6). (b) Photographs of the rosacea mouse model. 24 hrs after removal of the hair, the back skins of wild type (C57BL/6) and MC-deficient (KitWsh^−/−) mice were injected intradermally with 50 μl of 320 μM Cath LL-37 or filtered PBS twice a day for 2 days. Clinical observation was carried out for 72 hours. (c) Skins from WT, WT MC reconstituted KitWsh^−/− and KitWsh^−/− mice were challenged as indicated and harvested after 72 hours of observation. Mmp-9 mRNA expression in each sample was assessed by RT-PCR. (d) Assessment of MMP protease activities in WT mouse skin following challenge with PBS or the indicated amounts of Cath LL-37. (e) Skin biopsies from WT or KitWsh^−/− mice were analyzed by RT-PCR for the expression of MC proteases at 0, 1, 4, and 24 hrs after Cath LL-37 challenge. Statistics: Mann Whitney test, one-way and two-way ANOVA*p<0.05, **p<0.01, ***p<0.001 (1b-1e: n=3).
(§1) (a) Bone marrow derived mouse MCs were challenged in vitro with 10 ug/mL Cath LL-37 or PBS as indicated. The cells were harvested at different time points and the mRNA was extracted and assessed by RT-PCR for tryptase, chymase and Mmp-9 expression. (b) Cell culture supernatant from bone marrow derived MCs was taken after 24 hrs of Cath LL-37 challenge. MMP and MMP-9 specific activities were measured by assessing cleavage of MMP substrate in the presence or absence of a specific MMP-9 inhibitor, as indicated. (c) Bone marrow derived MCs were treated, as indicated, for 24 hrs before collecting supernatants and assessing degranulation percentage by measuring β-hexosaminidase release. (d) Cultured mouse MCs were challenged with the indicated concentrations of Cath LL-37 for 24 or 48 hrs before supernatants were collected and the amounts of IL-6 secretion were measured. (e) Il-6 mRNA expression was measured by RT-PCR in mouse skin biopsies after 0, 1, 4, and 24 hrs of Cath LL-37 challenge in WT and MC deficient mice, as indicated. Statistics: t-test ***p<0.001 (n=3).
Mast cell deficient (C57BL/6-KitWsh^−/−) mice were bred. KitWsh^−/− mice bearing the W-sash (Wsh) inversion mutation have MC deficiency, but lack anemia and sterility. […] Wild type mice (C57BL/6) were utilized as control. Mice were shaved 24 hrs before intradermal injection with 50 μl of 50 μM or 320 μM of Cath LL-37 or filtered PBS (n=3), twice a day for 2 days and skin biopsies were taken after 72 hours of observation. Total RNA was extracted and purified by RNeasy Mini Kit (QIAGEN science). For the time course observation, skin biopsies of WT and MC deficient mice were taken at 1, 4, and 24 hrs after Cath LL-37 injection.
BMMC reconstitution in KitWsh−/− mice. 4×10^6 cells of C57BL/6 mature BMMCs were diluted in filtered PBS and injected into the shaved back skin of 6 week old C57BL/6− KitWsh^−/− mice (400 μl; 8×50 μl injections) intradermally. After 6 weeks, MCs were confirmed as resident cells in skin by toluidine blue staining.
(§2) Total-MMP activities were determined by following previously reported study (Kanada et al., 2012). To determine MMP-9 activity, MMP-9 specific inhibitor I (Thermo Fisher Scientific, Chicago, IL) was used.
(§3) cDNA was synthesized from RNA using the iScript cDNA Synthesis Kit (BioRad, Hercules, CA) according to the manufacturer's protocol. cDNA was normalized using a NanoDrop spectrophotometer (Thermo Fisher Scientific Inc.). Probes from TagMan Gene Expression Assays (Applied Biosystems ABI, Foster City, CA) were used to analyze gene expressions with following to the manufacturer's instructions. Gapdh mRNA was used as an internal control to validate RNA for each sample. mRNA expression was calculated as the relative expression to Gapdh mRNA, and all data are presented as fold change of each control.
Cath LL-37 was injected intradermally into mast cell deficient mice (KitWsh^−/−) and compared the resulting inflammation with Wild Type (WT) mice. […]

Test [2] deals with bone marrow derived mouse MCs. The experiment in a line: In vitro Cath LL-37 challenge of bone marrow derived mouse MCs. The format is cell-based. The protocol: as §1
Primary MCs were generated from mouse bone marrow and cultured as previously written (Wang et al., 2011). MCs were cultured in Stemline® II Hematopoietic Stem Cell Expansion Medium (Sigma-Aldrich).
as §2, §3
Degranulation percentage was assessed by measuring the activity of β-hexosaminidase in the supernatants as previously described (Wang et al., 2012).
ELISA (ELISA MAX™ Deluxe; BioLegend, San Diego, CA) was utilized to determine mouse IL-6 according to the manufacturer's instructions, normalized to total protein content.
To confirm that mast cells are responsive to direct Cath LL-37 stimulation, bone marrow derived mouse MCs were stimulated with different concentrations of Cath LL-37 at different time points. […] MMP-9 protease activity in the culture medium of MCs stimulated with Cath-LL37 for 24 hrs was confirmed by fluorescence enzymatic activity assay using an MMP specific substrate and an MMP-9 specific inhibitor (FIG. 2b).

A further test relates to WT and KitWsh-/- mice. The experiment in a line: Neuropeptide experiment: intradermal neuropeptide in WT and KitWsh-/- mice, skin mRNA by RT-PCR. In kind it is in vivo, mouse. Conditions: 100 μL of 1 μM intradermally, 6 hrs. As for the experimental part:
WT and KitWsh^−/− mice were injected with PBS or 100 μL of 1 μM neuropeptide (SP, substance P; ADM-2, adrenomedullin-2; PACAP, pituitary adenylate cyclase-activating peptide) intradermally, as indicated. Skin biopsies were harvested 6 hrs after injection and mRNA expressions of (a) proteases (chymase, tryptase, Mmp-9 and Mmp-1) and (b) proinflammatory cytokines (Cxcl2 and Tnf-α) were assessed by RT-PCR. Statistics: two-way ANOVA*p<0.05, **p<0.01, ***p<0.001 (n=3).
For the neuropeptide experiment, 100 μL of 1 μM neuropeptide or PBS was injected into mice intradermally. Skin biopsies were taken 6 hrs after injection.
as §3
Rosacea flare-ups are frequently initiated by face flushing due to neuronal dysfunction and increased release of pituitary adenylate cyclase-activating peptide (PACAP) (Schwab et al., 2011). To investigate whether neuropeptides (NPs) require MC activation for the development of the inflammatory response in rosacea, 100 μL of 1 μM NP (substance P: SP, adrenomedullin-2: ADM-2, PACAP) was injected intradermally into WT and MC deficient mice. […] Moreover, these same MC enzymes can further increase the levels of free Cath LL-37 and amplify the inflammatory response.

[3] abbreviates: MC-deficient mice after Cath LL-37.
Where [4] appears, read: WT mice, 0, 1, 4, 24 hrs after Cath LL-37.
[5] abbreviates: Cath LL-37 stimulated MCs, at 5 hrs.
Where [6] appears, read: Cath LL-37 stimulated MCs, at 5 hrs, p<0.001.

Take “Cath LL-37: LL-37 Cathelicidin antimicrobial peptide, C-terminal 37 amino acids of human cathelicidin”: the “clinical end point observation of skin” value in test [1] (KitWsh-/- mice, intradermal Cath LL-37, at 72 hrs) is reported as “did not develop any rosacea-like features”. In test [1] (setting [3]), the “chymase expression in skin (time course)” value was “not detectable” and the “tryptase expression in skin (time course)” value is given as “not detectable”. Further, the “IL-6 mRNA expression in skin” value in test [1] (WT mice following Cath LL-37 challenge) is on record as “Increased”. For the same substance, in test [1] (setting [4]), the “chymase expression in skin (time course)” value was “expressed immediately after injection” and the “tryptase expression in skin (time course)” value is “expressed immediately after injection”. Besides, in test [1] (WT mice, 50 μM and 320 μM Cath LL-37 injected), the “MMP activity in skin” value is “increases in a dose dependent manner”. Besides, the “clinical end point observation of skin” value in test [1] (WT mice, intradermal Cath LL-37 twice a day for 2 days, at 72 hrs) is reported as “rosacea-like inflammation”. In addition, the “Mmp-9 mRNA expression in skin from MC deficient mice compared with WT and WT MC-reconstituted KitWsh-/- mice” value in test [1] (after peptide challenge, 72 hours, p<0.01 vs WT, p<0.05 vs reconstituted) is “significantly lower”. Further, the “IL-6 mRNA expression in skin” value in test [1] (mast cell deficient mice following Cath LL-37 challenge) is recorded as “not in mast cell deficient mice”. Moreover, the “secreted IL-6 (ELISA)” value in test [2] (24 and 48 hrs of stimulation, Cath LL-37 20 nM and 40 nM) was “high levels”. Moreover, in test [2] (setting [5]), the “Klk5 mRNA expression” value was “not detectable”, the “Klk6 mRNA expression” value was “not detectable” and the “Mmp-1a mRNA expression” value is “not detectable”. Moreover, in test [2] (setting [6]), the “Mmp-9 mRNA expression” value is “significantly higher”, the “Tryptase mRNA expression” value is “significantly higher” and the “chymase mRNA expression” value is recorded as “significantly higher”. The “MMP-9 protease activity in the culture medium” value in test [2] (MCs stimulated with Cath-LL37 for 24 hrs, MMP specific substrate and MMP-9 specific inhibitor) is “confirmed”. For the same substance, the “MC degranulation (β-hexosaminidase release)” value in test [2] (low concentration of Cath LL-37 (20 nM), supernatants after 24 hrs) is listed as “able to induce degranulation”.

Take “pituitary adenylate cyclase-activating peptide [PACAP]”: the “Tnf-a mRNA expression in skin” value with WT and KitWsh-/- mice (MC deficient mice) is “not in MC deficient mice”. Moreover, in the test on WT and KitWsh-/- mice (WT mice, p<0.01), the “Cxcl2 mRNA expression in skin” value is recorded as “significantly increased”, the “Tnf-a mRNA expression in skin” value is given as “significantly increased” and the “Tryptase mRNA expression in skin” value was “dramatically increased”. For the same substance, in the test on WT and KitWsh-/- mice (WT mice, p<0.05), the “Chymase mRNA expression in skin” value is recorded as “significantly increased”, the “Mmp-1 mRNA expression in skin” value is reported as “significantly increased” and the “Mmp-9 mRNA expression in skin” value was “significantly increased”.
